The record followed here is patent US8258309B2, “Azapeptide derivatives” (priority 2007, dated 2012).

One data set relates to HIV-1RF. As to the kind of experiment: HIV anti-viral activity in CEM-SS cells infected with HIV-1 (XTT). It is filed as cell-based. The protocol: The HIV antiviral activity of compound of the present invention was tested in CEM-SS cells infected with HIV-1. CEM-SS cells were passaged in T-75 flasks in RPMI 1640 medium supplemented with 10% heat inactivated fetal bovine serum, 2 mmol/L L-glutamine, 100 U/mL penicillin and 100 flg/mL streptomycin prior to use in the antiviral assay. On the day preceding the assay, the cells were split 1:2 to assure they were in an exponential growth phase at the time of infection. Total cell and viability quantification was performed using a hemocytometer and Trypan Blue dye exclusion. Cell viability was greater than 95% for the cells to be utilized in the assay. The cells were resuspended at 5×10^4 cells per mL in tissue culture medium and added to the drug-containing microtiter plates in a volume of 50 μL.
The virus used for the assay was the lymphocyte-tropic virus strain HIV-IRF. The virus was obtained from the NIH AIDS Research and Reference Reagent Program and stock virus pools were produced in CEM-SS cells. A pre-titered aliquot of virus was removed from the freezer (−80° C.) and allowed to thaw slowly to room temperature in a biological safety cabinet. Virus was resuspended and diluted into tissue culture medium such that the amount of virus added to each well in a volume of 50 μL was the amount determined to yield 85 to 95% cell killing at 6 days post-infection.
Each plate contains cell control wells (cells only), virus control wells (cells plus virus), compound toxicity wells (cells plus compound only), compound colorimetric control wells (compound only) as well as experimental wells (compound plus cells plus virus). Samples were tested in triplicate with eleven half-log dilutions per compound starting at 0.1 μM of compound. Compounds 104, 120 and 122 were tested, as was atazanavir and AZT. […]
Following incubation at 37° C. in a 5% CO2 incubator, the test plates were stained with the tetrazolium dye XTT (2,3-bis(2-methoxy-4-nitro-5sulfophenyl)-5-[(phenylamino)carbonyl]-2H-tetrazolium hydroxide). XTT-tetrazolium was metabolized by the mitochondrial enzymes of metabolically active cells to a soluble formazan product, allowing rapid quantitative analysis of the inhibition of HIV induced cell killing by anti-HIV test substances. XTT solution was prepared daily as a stock of 1 mg/mL in RPMI 1640. Phenazine methosulfate (PMS) solution was prepared at 0.15 mg/mL in PBS and stored in the dark at −20° C. XTT/PMS stock was prepared immediately before use by adding 40 μL of PMS per mL of XTT solution. Fifty microliters of XTT/PMS was added to each well of the plate and the plate was reincubated for 4 hours at 37° C. Plates were sealed with adhesive plate sealers and shaken gently or inverted several times to mix the soluble formazan product and the plate was read spectrophotometrically at 450/650 nm with a Molecular Devices Vmax plate reader.
Raw data was collected from the Softmax Pro 4.6 software and imported into a Microsoft Excel 2003 spreadsheet for analysis by linear curve fit calculations.
Background: Tetrazolium dyes change colour on reduction, which living cells bring about.

A short description of data set [1]: Rat pharmacokinetics, intravenous and oral co-dosing of Compound 122 and atazanavir. It is filed as in vivo. Particulars: male, Sprague-Dawley, plasma, rats, 1 mg/kg of each. As to the method: Rat Pharmacokinetics. […] Then the combo dose was prepared by mixing both by 1:1 to yield a final concentrations at 1 mg/mL for each compound (pH=5-6) for intravenous and oral administration. Male Sprague-Dawley rats (body weight: 170 g to 235 g) were used in this study. […] Blood samples (300 μL) were collected via the retro-orbital vein at pre-dose and 0.083, 0.25, 0.5, 1, 2, 4, 6, 8, 10, 12 and 24 hours post-dose. Blood samples were placed into heparinized eppendorf tubes (evaporated) and then centrifuged at 8000 rpm for 6 minutes. 100 μL aliquots of plasma were transferred to clean Eppendorf tubes and stored with the dose formulation at -20° C. until bioanalysis. For bioanalysis, plasma was thawed and added to it was 20 μL methanol and 500 μL of a 50 ng/ml internal standard solution (quetiapine in methanol). The sample was vortexed, centrifuged at 15,000 rpm for 5 minutes and the supernatant transferred to glass autosampler vials. Analyses of plasma samples were performed using a high performance liquid chromatography/mass spectrometry (HPLC/MS/MS) method. The LC system comprised an Agilent (Agilent Technologies Inc, USA) liquid chromatograph equipped with an isocratic pump (1100 series), an autosampler (1100 series) and a […]). Mass spectrometric analysis was performed using an API3000 (triple-quadrupole) instrument from AB Inc (Canada) with an ESI interface. The data acquisition and control system were created using Analyst 1.4 software from ABI Inc. Following intravenous co-administration of Compound 122 and atazanavir, atazanavir disappeared more rapidly from the blood.

A short description of data set [2]: Chimp pharmacokinetics Run A, IV or PO co-dosing of atazanavir and Compounds 114, 120, 122. In kind it is in vivo, chimpanzee. Conditions: for concentration at 24 h: concentration detected intact in urine. As to the method:
Chimp Pharmacokineties. Run A: A 4 mg/mL solution of atazanavir and each of Compounds 114, 120 and 122 were prepared in 10% DMI (dimethyl isosorbide), 15% EtOH, 35% PG in D5W. Specifically, for each compound, 240 mgs of compound was dissolved in a solution composed of 6 mL of DMI, 9 mL of EtOH and 21 mL PG. Once the compound was fully dissolved, 24 mL of D5W was added and the solution mixed.
Fifty-five mL of each drug solution is then combined and the mixture was sterile filtered using a 0.2 μm filter. This produced 220 mL of a 1:1:1:1 mixture atazanavir:Compound 114:Compound 120:Compound 122. The final concentration of each drug in the solution was 1 mg/mL. Each animal received 50 mL of this solution through either IV or PO routes.
Four chimps (two male and two female) were used in this study and were fasted overnight prior to administration of the compound solution. Animals were sedated with ketamine and/or telazol prior to dosing. Intravenous dosing was achieved by IV infusion over 30 minutes.
Approximately 4.5 mL of blood was collected into vacutainer tubes with sodium heparin as an anticoagulant at 0 (preinfusion), 15 min., 29.5 min (immediately before the end of the infusion), and then at 6, 15, 30, and 45 minutes, and 1, 2, 4, 6, 8, 10, 12, 24 hours after the infusion is stopped. A similar procedure was used to collect blood after oral dosing with samples taken at 0 (predose), 15, and 30 minutes, and at 1, 1.5, 2, 4, 6, 8, 10, 12, 24 hours postdose. Following sample collection, the vacutainer tubes were rocked by hand several times to insure adequate mixing. Blood samples were placed immediately on wet ice and centrifuged within 1 hour from time of collection. Following centrifugation, the resulting plasma was stored frozen at −70° C. until analysis. The results are summarized in FIGS. 4 and 5 and tables 6 and 7.

Where [3] appears, read: Human immunodeficiency virus 1, CEM-SS, +0.5 mg/mL AAGP.
The mark [4] stands for this setting: Human immunodeficiency virus 1, CEM-SS, +10 mg/mL HAS.
The mark [5] stands for this setting: Human immunodeficiency virus 1, CEM-SS, +AAGP + HSA.
Setting [6] is: Human immunodeficiency virus 1, CEM-SS, No Serum Protein Added (cell culture medium).

With `COC(=O)N[C@H](C(=O)N[C@@H](Cc1ccccc1)[C@@H](O)CN(Cc1ccc(-c2ccccn2)cc1)NC(=O)[C@@H](NC(=O)OC)C(C)(C)C)C(C)(C)C` [Atazanavir, atazanavir, reference compound], the EC50 (in general, the concentration giving half of the maximal effect) in the data set with HIV-1RF (setting [3]) was 4 nM; with HIV-1RF (setting [4]), 4 nM; in the data set on HIV-1RF (setting [5]), 8 nM; in the data set with HIV-1RF (setting [6]) it was 1 nM. The AUC (in general, the area under the concentration-time curve, a measure of exposure) in data set [1] (intravenous co-dosing) was found to be 475 ± 15.9 ng·h/mL; in data set [1] (oral co-dosing), 86 ± 51.2 ng·h/mL. The half-life (in general, the time needed for the level to fall by half in the phase considered) in data set [1] (intravenous co-dosing) is 13.8 ± 0.6 min; in data set [1] (oral co-dosing), 19.2 ± 3.6 min. The Cmax (in general, the maximum level reached in the sampled fluid or tissue) in data set [1] (oral co-dosing) stood at 109 ± 67.2 ng/mL. Also, the “concentration detected intact in urine” value was determined as 1790 ng/mL in data set [2] (chimpanzee, in vivo, iv, 24 h) and 516 ng/mL in data set [2] (chimpanzee, in vivo, po, 24 h). Moreover, the concentration at 24 h in data set [2] (chimpanzee, in vivo, iv) was 2000 ng/mL; in data set [2] (chimpanzee, in vivo, po) it was 569 ng/mL.
For the molecule `[2H]C([2H])([2H])OC(=O)N[C@H](C(=O)N[C@@H](Cc1ccccc1)[C@@H](O)CN(Cc1ccc(-c2ccccn2)cc1)NC(=O)[C@@H](NC(=O)OC([2H])([2H])[2H])C(C([2H])([2H])[2H])(C([2H])([2H])[2H])C([2H])([2H])[2H])C(C([2H])([2H])[2H])(C([2H])([2H])[2H])C([2H])([2H])[2H]` [Compound 122, 1,14-Di(methyl-d3)(3S,8S,9S,12S)-3,12-bis[(1,1-dimethylethyl)-d9]-8-hydroxy-4,11-dioxo-9-(phenylmethyl)-6-[[4-(2-pyridinyl)phenyl]methyl]-2,5,6,10,13-pentaazatetradecanedioate], the “fold less potent in the presence of HSA than in cell culture medium alone” value with HIV-1RF (10 mg/mL HSA versus cell culture medium) is listed as “two- to greater than three-fold less potent”. The EC50 is 0.8 nM with HIV-1RF (+10 mg/mL HAS); 2 nM in the data set on HIV-1RF (setting [3]); 0.9 nM with HIV-1RF (setting [4]); 6 nM in the data set on HIV-1RF (setting [5]); under 0.4 nM in the data set on HIV-1RF (setting [6]); 0.4 nM in the data set with HIV-1RF (No Serum Protein Added (cell culture medium)). For the same molecule, the results for the AUC in data set [1] (intravenous co-dosing) and in data set [1] (oral co-dosing) were 503 ± 25.1 ng·h/mL and 156 ± 70.6 ng·h/mL, respectively. Moreover, the half-life in data set [1] (intravenous co-dosing) was 15 ± 1.2 min; in data set [1] (oral co-dosing) it was 27.6 ± 9.6 min. For the same molecule, the Cmax in data set [1] (oral co-dosing) amounted to 183 ± 113 ng/mL. The “Ratio of urine concentration, compound:Atazanavir” value in data set [2] (chimp A242E, PO, 24 hours, Run A) came to 2.25; in data set [2] (chimp A336C, IV, 24 hours, Run A), 1.82; in data set [2] (chimpanzee, in vivo, iv, 24 h), 1.57; in data set [2] (chimpanzee, in vivo, po, 24 h), 2.29. Besides, the “concentration detected intact in urine” value in data set [2] (chimpanzee, in vivo, iv, 24 h) was 3250 ng/mL; in data set [2] (chimpanzee, in vivo, po, 24 h), 1180 ng/mL. For the same molecule, the concentration at 24 h is 3130 ng/mL in data set [2] (chimpanzee, in vivo, iv) and 1280 ng/mL in data set [2] (chimpanzee, in vivo, po).
